From publication PMC11855827, “High-Throughput Screening of Five Compound Libraries for Anthelmintic Activity and Toxicity Leads to the Discovery of Two Flavonoid Compounds” (International Journal of Molecular Sciences, 2025)
Several values for one entry are separate records, joined by “and”; a condition that tells them apart may be missing. Equal entries are not always repeated. Where two headings read alike, the source gives them in different places. Where a SMILES comes first, the peptide text is derived from it.

System: C. elegans
[1] = Table S2, C. elegans SS assay, 110 μM, averages of 4 data points

Structure (SMILES): C[C@@H](CO)[C@@H]1CC[C@@]2(CC[C@]3(C)[C@H](CC[C@@H]4[C@@]5(C)CC[C@H](O[C@@H]6O[C@H](CO)[C@@H](O)[C@H](O)[C@H]6O[C@@H]6O[C@H](CO)[C@@H](O)[C@H](O)[C@H]6O)[C@@](C)(CO[C@@H]6O[C@H](CO)[C@@H](O)[C@H](O)[C@H]6O)[C@@H]5CC[C@]43C)[C@H]2O)CO1 [Hosenkoside A]
- Percentage of motility inhibition 0 h [1]: 15%
- Percentage of motility inhibition 24 h [1]: 19%

Structure (SMILES): C[C@H](CO[C@@H]1O[C@H](CO)[C@@H](O)[C@H](O)[C@H]1O)[C@H]1CC[C@@]2(CC[C@]3(C)[C@H](CC[C@@H]4[C@@]5(C)CC[C@H](O[C@@H]6O[C@H](CO)[C@@H](O)[C@H](O)[C@H]6O[C@@H]6O[C@H](CO)[C@@H](O)[C@H](O)[C@H]6O)[C@@](C)(CO)[C@@H]5CC[C@]43C)[C@H]2O)CO1 [Hosenkoside B]
- Percentage of motility inhibition 0 h [1]: 7%
- Percentage of motility inhibition 24 h [1]: 10%

Structure (SMILES): C[C@H](CO[C@@H]1O[C@H](CO)[C@@H](O)[C@H](O)[C@H]1O)[C@H]1CC[C@@]2(CC[C@]3(C)[C@H](CC[C@@H]4[C@@]5(C)CC[C@H](O[C@@H]6O[C@H](CO)[C@@H](O)[C@H](O)[C@H]6O[C@@H]6OC[C@@H](O)[C@H](O)[C@H]6O)[C@@](C)(CO)[C@@H]5CC[C@]43C)[C@H]2O)CO1 [Hosenkoside F]
- Percentage of motility inhibition 0 h [1]: 12%
- Percentage of motility inhibition 24 h [1]: 0%

Structure (SMILES): C[C@@H](CO[C@@H]1O[C@H](CO)[C@@H](O)[C@H](O)[C@H]1O)[C@@H]1CC[C@@]2(CC[C@]3(C)[C@H](CC[C@@H]4[C@@]5(C)CC[C@H](O[C@@H]6O[C@H](CO)[C@@H](O)[C@H](O)[C@H]6O[C@@H]6O[C@H](CO)[C@@H](O)[C@H](O)[C@H]6O)[C@@](C)(CO[C@@H]6O[C@H](CO)[C@@H](O)[C@H](O)[C@H]6O)[C@@H]5CC[C@]43C)[C@H]2O)CO1 [Hosenkoside K]
- Percentage of motility inhibition 0 h [1]: 10%
- Percentage of motility inhibition 24 h [1]: 2%

Structure (SMILES): C[C@@H](CO[C@@H]1O[C@H](CO)[C@@H](O)[C@H](O)[C@H]1O)[C@@H]1CC[C@@]2(CC[C@]3(C)[C@H](CC[C@@H]4[C@@]5(C)CC[C@H](O[C@@H]6O[C@H](CO)[C@@H](O)[C@H](O)[C@H]6O[C@@H]6OC[C@@H](O)[C@H](O)[C@H]6O)[C@@](C)(CO[C@@H]6O[C@H](CO)[C@@H](O)[C@H](O)[C@H]6O)[C@@H]5CC[C@]43C)[C@H]2O)CO1 [Hosenkoside M]
- Percentage of motility inhibition 0 h [1]: 5%
- Percentage of motility inhibition 24 h [1]: 0%

Structure (SMILES): CCC1=N[C@H]2C[C@@]3(C(=O)N(OC)c4ccccc43)[C@H]3CC1[C@@H]2CO3 [Humantenmine]
- Percentage of motility inhibition 0 h [1]: 8%
- Percentage of motility inhibition 24 h [1]: 12%

Structure (SMILES): C[C@H]1CC[C@H]2[C@H](C)[C@@H]3CC[C@@H]4[C@@H](C[C@H]5[C@H]4C[C@@H](O)[C@H]4C[C@@H](O)CC[C@@]45C)[C@@H]3CN2C1 [Hupehenine]
- Percentage of motility inhibition 0 h [1]: 0%
- Percentage of motility inhibition 24 h [1]: 10%

Structure (SMILES): CC[C@H]1CN2CC[C@H]1C[C@@H]2[C@@H](O)c1ccnc2ccc(OC)cc12 [Hydroquinidine]
- Percentage of motility inhibition 0 h [1]: 29% and 50%

Structure (SMILES): COc1cc(O)c2c(=O)cc(-c3ccc(O)c(O)c3)oc2c1 [Hydroxygenkwanin]
- Percentage of motility inhibition 0 h [1]: 11%
- Percentage of motility inhibition 24 h [1]: 13%

Structure (SMILES): C/C=C/C=C/C=C\CC/C=C/C(=O)NCC(C)(C)O [Hydroxy‐α‐sanshool]
- Percentage of motility inhibition 0 h [1]: 3%
- Percentage of motility inhibition 24 h [1]: 0%

Structure (SMILES): C/C=C/C=C/C=C/CC/C=C/C(=O)NCC(C)(C)O [Hydroxy‐β‐sanshool]
- Percentage of motility inhibition 0 h [1]: 46%
- Percentage of motility inhibition 24 h [1]: 10%

Structure (SMILES): NCC(=O)N1CCC[C@H]1C(=O)O [H‐Gly‐Pro‐OH] (H-Gly-Pro-OH)
- Percentage of motility inhibition 0 h [1]: 8%
- Percentage of motility inhibition 24 h [1]: 4%

Structure (SMILES): NCCCC[C@H](NC(=O)[C@H](Cc1c[nH]c2ccccc12)NC(=O)[C@@H](N)CCCCN)C(=O)O [H‐Lys‐Trp‐Lys‐OH] (H-Lys-Trp-Lys-OH)
- Percentage of motility inhibition 0 h (110 μM): 55%
- Percentage of motility inhibition 24 h (110 µM): 10%

Structure (SMILES): CCCCCCCCCCCCC(=O)NNC(=O)c1c(O)c2ccccc2n(CC)c1=O [I2906]
- Percentage of motility inhibition 0 h [1]: 27%
- Percentage of motility inhibition 24 h [1]: 30%

Structure (SMILES): CC(C)=CCc1c(O)cc(O)c2c(=O)c(O[C@@H]3O[C@@H](C)[C@H](O)[C@@H](O)[C@H]3O)c(-c3ccc(O)cc3)oc12 [IKarisoside A]
- Percentage of motility inhibition 0 h [1]: 32%
- Percentage of motility inhibition 24 h [1]: 5%

Structure (SMILES): COc1ccc(-c2oc3c(CC=C(C)C)c(O[C@@H]4O[C@H](CO)[C@@H](O)[C@H](O)[C@H]4O)cc(O)c3c(=O)c2O)cc1 [Icariside I]
- Percentage of motility inhibition 0 h [1]: 0%
- Percentage of motility inhibition 24 h [1]: 23%

Structure (SMILES): CC(C(O)c1ccc(O)cc1)N1CCC(Cc2ccccc2)CC1.CC(C(O)c1ccc(O)cc1)N1CCC(Cc2ccccc2)CC1.O=C(O)C(O)C(O)C(=O)O (stereo not drawn) [Ifenprodil (ta rtrate)]
- Percentage of motility inhibition 0 h [1]: 12%
- Percentage of motility inhibition 24 h [1]: 15%

Structure (SMILES): C[C@@H]1CC[C@]2(C(=O)O)CC[C@]3(C)C(=CC[C@@H]4[C@@]5(C)CC[C@H](O)[C@](C)(C(=O)O)[C@@H]5CC[C@]43C)[C@@H]2[C@]1(C)O [Ilexgenin A]
- Percentage of motility inhibition 0 h [1]: 27%
- Percentage of motility inhibition 24 h [1]: 0%

Structure (SMILES): C[C@H]1CC[C@]2(C(=O)O)CC[C@]3(C)C(=CC[C@@H]4[C@@]5(C)CC[C@H](O[C@@H]6OC[C@@H](O)[C@H](O)[C@H]6O[C@@H]6O[C@H](CO)[C@@H](O)[C@H](O)[C@H]6O)C(C)(C)[C@@H]5CC[C@]43C)[C@@H]2[C@]1(C)O [Ilexoside D]
- Percentage of motility inhibition 0 h [1]: 0%
- Percentage of motility inhibition 24 h [1]: 22%

Structure (SMILES): C[C@@H]1CC[C@]2(C(=O)O[C@@H]3O[C@H](CO)[C@@H](O)[C@H](O)[C@H]3O)CC[C@]3(C)C(=CC[C@@H]4[C@@]5(C)CC[C@H](O)[C@](C)(C(=O)O)[C@@H]5CC[C@]43C)[C@@H]2[C@]1(C)O [Ilexsaponin A]
- Percentage of motility inhibition 0 h [1]: 0%
- Percentage of motility inhibition 24 h [1]: 12%

Structure (SMILES): C[C@H]1CC[C@@H]2N(C1)C[C@H]1[C@@H]3C[C@H]4[C@@H](CC(=O)[C@H]5C[C@@H](O[C@@H]6O[C@H](CO)[C@@H](O)[C@H](O)[C@H]6O)CC[C@@]54C)[C@@H]3CC[C@H]1[C@]2(C)O [Imperialine 3‐β‐D‐glucoside]
- Percentage of motility inhibition 0 h [1]: 10%
- Percentage of motility inhibition 24 h [1]: 10%

Structure (SMILES): CC(=O)O[C@H]1CC/C(C)=C/CC/C(C)=C/C[C@]2(C(C)C)CC[C@@]1(C)O2 [Incensole Acetate]
- Percentage of motility inhibition 0 h [1]: 9%
- Percentage of motility inhibition 24 h [1]: 17%

Structure (SMILES): CC(C)(C)NC(=O)[C@@H]1CN(Cc2cccnc2)CCN1C[C@@H](O)C[C@@H](Cc1ccccc1)C(=O)N[C@H]1c2ccccc2C[C@H]1O.O=S(=O)(O)O [Indinavir (sulfate)]
- Percentage of motility inhibition 0 h [1]: 8%
- Percentage of motility inhibition 24 h [1]: 10%

Structure (SMILES): O=Cc1c[nH]c2ccccc12 [Indole‐3‐carboxaldehyde]
- Percentage of motility inhibition 0 h [1]: 0%
- Percentage of motility inhibition 24 h [1]: 17%

Structure (SMILES): CC1=C[C@]23C(=O)[C@@H](C=C(COC(=O)c4ccccc4)[C@@H](O)[C@]2(O)[C@H]1OC(=O)c1ccccc1)[C@H]1[C@@H](C[C@H]3C)C1(C)C [Ingenol 3,20-dibenzoate]
- Percentage of motility inhibition 0 h [1]: 0%
- Percentage of motility inhibition 24 h [1]: 0%

Structure (SMILES): CC1=CC23C(=O)C(C=C4COC(C)(C)OC4C24OC(C)(C)OC14)C1C(CC3C)C1(C)C (stereo not drawn) [Ingenol-3,4,5,20-diacetonide]
- Percentage of motility inhibition 0 h [1]: 1%
- Percentage of motility inhibition 24 h [1]: 9%
